Experimental data: patent publication US8734777B2, “Heterocyclic antiviral compounds” (priority 2010, dated 2014)

Assays:
[1] = biological target: T1, HCV polymerase (NS5B570n-Con1) (Hepatitis C virus genotype 1b, UniProt Q9WMX2); assay: HCV NS5B RNA polymerase activity assay; format: biochemical, HCV Con1 strain
T1 construct: contains a 21 amino acid deletion at the C-terminus relative to the full-length HCV polymerase; 6-histidine (N); made in house; host or cells: E. coli strain BL21(DE) pLysS, plasmid pET17b
Description: The enzymatic activity of HCV polymerase (NS5B570n-Con1) was measured as the incorporation of radiolabeled nucleotide monophosphates into acid insoluble RNA products. Unincorporated radiolabeled substrate was removed by filtration and scintillant was added to the washed and dried filter plate containing radiolabeled RNA product. The amount of RNA product generated by NS5B570-Con1 at the end of the reaction was directly proportional to the amount of light emitted by the scintillant.
The N-terminal 6-histidine tagged HCV polymerase, derived from HCV Con1 strain, genotype 1b (NS5B570n-Con1) contains a 21 amino acid deletion at the C-terminus relative to the full-length HCV polymerase and was purified from E. coli strain BL21(DE) pLysS. The construct, containing the coding sequence of HCV NS5B Con1 (GenBank accession number AJ242654) was inserted into the plasmid construct pET17b, downstream of a T7 promoter expression cassette and transformed into E. coli. A single colony was grown overnight as a starter culture and later used inoculate 10 L of LB media supplemented with 100 μg/mL ampicillin at 37° C. Protein expression was induced by the addition of 0.25 mM isopropyl-β-D-thiogalactopyranoside (IPTG) when optical density at […] of the culture was between 0.6 and 0.8 and cells were harvested after 16 to 18 h at 30° C. NS5B570n-Con1 was purified to homogeneity using a three-step protocol including subsequent column chromatography on Ni-NTA, SP-Sepharose HP and Superdex 75 resins. […]
The amount of light emitted from the scintillant was converted to counts per minute (CPM) on a Topcount® plate reader (Perkin-Elmer, Energy Range: Low, Efficiency Mode: Normal, Count Time: 1 min, Background Subtract: none, Cross talk reduction: Off).
Data was analyzed in Excel® (Microsoft®) and ActivityBase® (Idbs®). […] All data was expressed as a percentage of the positive control. […]

[2] = test system: HCV replicon cells (2209-23), genotype 1b replicon; assay: HCV replicon assay (Renilla luciferase reporter); format: cell-based, HCV genotype 1b; conditions: Hepatitis C virus, 72 h; 2209-23 cells, three days incubation, luciferase activity
in vitro = conditions: human

COc1c(C(C)(C)C)cc(-n2ccc(=O)[nH]c2=O)c2ccc(-c3ccc(NS(C)(=O)=O)cc3)nc12 [Compound I-3, N-{4-[7-tert-Butyl-5-(2,4-dioxo-3,4-dihydro-2H-pyrimidin-1-yl)-8-methoxy-quinolin-2-yl]-phenyl}-methanesulfonamide] gave an IC50 [1] of 0.2 nM, an IC50 [2] of 17 nM and a melting point of 275 to 278 °C. For the same molecule, the CC50 at 3 days (in vitro) was 44000 nM.

With COc1c(C(C)(C)C)cc(-c2ccc(C)[nH]c2=O)c2ccc(-c3ccc(NS(C)(=O)=O)cc3)nc12 [Compound I-2, N-{4-[7-tert-Butyl-8-methoxy-5-(6-methyl-2-oxo-1,2-dihydro-pyridin-3-yl)-quinolin-2-yl]-phenyl}-methanesulfonamide] the IC50 [1] was 0.4 nM.

COc1c(C(C)(C)C)cc(-c2ccc[nH]c2=O)c2ccc(-c3ccc(NS(C)(=O)=O)cc3)nc12 [Compound I-1, N-{4-[7-tert-Butyl-8-methoxy-5-(2-oxo-1,2-dihydro-pyridin-3-yl)-quinolin-2-yl]-phenyl}-methanesulfonamide] gave an IC50 [1] of 0.6 nM.
